Test results published in PMC11500159, “Synthesis, α-Glucosidase, α-Amylase, and Aldol Reductase Inhibitory Activity with Molecular Docking Study of Novel Imidazo[1,2-a]pyridine Derivatives” (ACS Omega, 2024).

Legend:
[1] = target: T1, α-amylase (α-AMY) (Homo sapiens, UniProt P04746); test: α-AMY inhibitory activity (starch-iodine method, absorbance at 580 nm); type: biochemical; conditions: from Activity (%) - [inhibitor] graphs
T1 sequence (P04746 16-511): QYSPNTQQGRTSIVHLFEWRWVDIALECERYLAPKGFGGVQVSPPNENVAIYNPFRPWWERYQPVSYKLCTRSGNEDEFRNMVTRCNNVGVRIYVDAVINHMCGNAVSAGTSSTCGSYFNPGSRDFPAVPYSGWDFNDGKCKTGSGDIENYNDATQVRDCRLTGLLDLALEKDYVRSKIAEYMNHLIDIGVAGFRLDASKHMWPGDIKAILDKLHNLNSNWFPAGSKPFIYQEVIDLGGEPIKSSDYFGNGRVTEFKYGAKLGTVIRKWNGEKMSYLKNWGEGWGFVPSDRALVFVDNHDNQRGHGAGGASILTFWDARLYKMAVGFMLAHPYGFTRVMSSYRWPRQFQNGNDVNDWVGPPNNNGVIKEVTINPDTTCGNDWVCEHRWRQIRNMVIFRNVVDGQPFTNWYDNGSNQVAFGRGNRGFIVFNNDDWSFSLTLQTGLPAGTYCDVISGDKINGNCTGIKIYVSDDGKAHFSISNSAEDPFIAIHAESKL
Method: The assay involved preparing a substrate solution of starch in NaOH, adjusting the pH with HCl, and diluting the solution to volume. Enzyme and sample solutions were preincubated, mixed with the substrate, and incubated again. The reaction was stopped with HCl, and the absorbance was measured at 580 nm.
(§1) The inhibition effects of the novel imidazo[1,2-a]pyridine-based 1,3,4-thiadiazole derivatives were determined with different inhibitor concentrations (at least five) against AR, α-GLY, and α-AMY. The IC50 of the derivatives was calculated from Activity (%) – [inhibitor] graphs for derivatives. The inhibition types and KI values were found by Lineweaver and Burk’s curves.[50],[51]

[2] = target: α-glycosidase (α-GLY) (Saccharomyces cerevisiae, UniProt P53341); test: α-GLY inhibitory activity (para-nitrophenyl-α-D-glucopyranoside substrate); type: biochemical; conditions: Lineweaver-Burk curves; for Ki: mean ± SEM
α-glycosidase (α-GLY), sequence (P53341 whole entry): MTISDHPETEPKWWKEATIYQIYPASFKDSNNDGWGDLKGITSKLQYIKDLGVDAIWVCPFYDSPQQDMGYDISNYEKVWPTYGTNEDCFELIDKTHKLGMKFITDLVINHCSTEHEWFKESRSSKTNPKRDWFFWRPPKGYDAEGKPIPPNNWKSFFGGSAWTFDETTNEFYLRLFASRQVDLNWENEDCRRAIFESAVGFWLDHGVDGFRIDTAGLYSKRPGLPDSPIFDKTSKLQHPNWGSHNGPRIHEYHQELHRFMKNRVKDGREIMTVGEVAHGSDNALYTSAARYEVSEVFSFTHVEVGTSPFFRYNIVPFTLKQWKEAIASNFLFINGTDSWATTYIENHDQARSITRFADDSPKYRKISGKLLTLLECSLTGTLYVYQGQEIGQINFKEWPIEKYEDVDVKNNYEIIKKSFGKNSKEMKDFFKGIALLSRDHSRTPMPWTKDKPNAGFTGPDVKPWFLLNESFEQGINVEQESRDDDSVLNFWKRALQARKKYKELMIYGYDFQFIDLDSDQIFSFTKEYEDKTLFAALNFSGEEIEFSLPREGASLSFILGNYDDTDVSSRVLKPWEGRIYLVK
Method: In this analysis, a unit of α-GLY activity is defined as the amount of enzyme required to catalyze the hydrolysis of […] of substrate per minute at a standard pH of 7.4.
as §1

[3] = target: aldose reductase (AR) (Homo sapiens, UniProt P15121); test: AR inhibitory activity (NADPH consumption, absorbance at 340 nm); type: biochemical; conditions: Lineweaver-Burk curves; mean ± SEM
Method: The activity was assessed using methods that were modified from previously established protocols.[48],[49] The inhibitory activity of AR was assessed by measuring the reduction in absorbance at 340 nm due to the consumption of NADPH. […] The IC50 of the derivatives was calculated from Activity (%) – [inhibitor] graphs for derivatives.

SMILES | IC50 [1] | Ki [2] | Ki [3] | melting point | α-GLY inhibition type [2]
CCNc1nnc(SCC(=O)Nc2ccc(-c3cn4ccccc4n3)cc2)s1 [8d, 2-[(5-Ethylamino-1,3,4-thiadiazol-2-yl)thio]-N-[4-(imidazo[1,2-a]pyridin-2-yl)phenyl] Acetamide] | 122 µM | 88.7 ± 17.7 µM | 0.0785 ± 0.00824 µM | – | –
Cc1ccc(Nc2nnc(SCC(=O)Nc3ccc(-c4cn5ccccc5n4)cc3)s2)cc1 [8e, 2-[(5-(4-Methylphenyl)amino-1,3,4-thiadiazol-2-yl)thio]-N-[4-(imidazo[1,2-a]pyridin-2-yl)phenyl]acetamide] | – | – | – | 130.1 °C | competitive inhibition
O=C(CSc1nnc(Nc2ccc(Cl)cc2)s1)Nc1ccc(-c2cn3ccccc3n2)cc1 [8f, 2-[(5-(4-Chlorophenyl)amino-1,3,4-thiadiazol-2-yl)thio]-N-[4-(imidazo[1,2-a]pyridin-2-yl)phenyl]acetamide] | 142 µM | – | – | 265 °C | –
O=C(CSc1nnc(Nc2cccc(Cl)c2)s1)Nc1ccc(-c2cn3ccccc3n2)cc1 [8g, 2-[(5-(3-Chlorophenyl)amino-1,3,4-thiadiazol-2-yl)thio]-N-[4-(imidazo[1,2-a]pyridin-2-yl)phenyl]acetamide] | 132 µM | – | – | 199.2 °C | –
COc1cccc(Nc2nnc(SCC(=O)Nc3ccc(-c4cn5ccccc5n4)cc3)s2)c1 [8h, 2-[(5-(3-Methoxyphenyl)amino-1,3,4-thiadiazol-2-yl)thio]-N-[4-(imidazo[1,2-a]pyridin-2-yl)phenyl]acetamide] | 143 µM | – | – | 138.8 °C | –
O=C(CSc1nnc(Nc2ccccc2Cl)s1)Nc1ccc(-c2cn3ccccc3n2)cc1 [8j, 2-[(5-(2-Chlorophenyl)amino-1,3,4-thiadiazol-2-yl)thio]-N-[4-(imidazo[1,2-a]pyridin-2-yl)phenyl]acetamide] | 81.1 µM | – | – | 129 °C | –
COc1ccc(Nc2nnc(SCC(=O)Nc3ccc(-c4cn5ccccc5n4)cc3)s2)cc1 [8k, 2-[(5-(4-Methoxyphenyl)amino-1,3,4-thiadiazol-2-yl)thio]-N-[4-(imidazo[1,2-a]pyridin-2-yl)phenyl]acetamide] | 113 µM | – | – | 216.5 °C | –

Other lines, results leading:

IC50 [1] | Ki [2] | Ki [3] | melting point | α-GLY inhibition type [2] | SMILES
142 µM | 33 ± 1.25 µM | 0.0349 ± 0.00359 µM | – | – | O=C(CSc1nnc(Nc2ccccc2)s1)Nc1ccc(-c2cn3ccccc3n2)cc1 [8a, 2-[(5-Phenylamino-1,3,4-thiadiazol-2-yl)thio]-N-[4-(imidazo[1,2-a]pyridin-2-yl)phenyl] Acetamide]
113 µM | – | – | 244.2 °C | noncompetitive inhibition | CCc1ccc(Nc2nnc(SCC(=O)Nc3ccc(-c4cn5ccccc5n4)cc3)s2)cc1 [8b, 2-[(5-(4-Ethylphenyl)amino-1,3,4-thiadiazol-2-yl)thio]-N-[4-(imidazo[1,2-a]pyridin-2-yl)phenyl]acetamide]
– | 77.5 ± 5.74 µM | 0.14 ± 0.0133 µM | – | – | O=C(CSc1nnc(NC2CCCCC2)s1)Nc1ccc(-c2cn3ccccc3n2)cc1 [8c, 2-[(5-Cyclohexylamino-1,3,4-thiadiazol-2-yl)thio]-N-[4-(imidazo[1,2-a]pyridin-2-yl)phenyl] Acetamide]
154 µM | – | – | 104.9 °C | – | COc1ccccc1Nc1nnc(SCC(=O)Nc2ccc(-c3cn4ccccc4n3)cc2)s1 [8i, 2-[(5-(2-Methoxyphenyl)amino-1,3,4-thiadiazol-2-yl)thio]-N-[4-(imidazo[1,2-a]pyridin-2-yl)phenyl]acetamide]
